According to publication PMC6315395, “New Lipophenol Antioxidants Reduce Oxidative Damage in Retina Pigment Epithelial Cells” (Antioxidants, 2018):

Tests used:
Abca4 −/− Rdh8 −/− mice = tested on: Abca4 −/− Rdh8 −/− mice; parameters: method as in PMID 27992460; conditions: treated orally for three months; cited from earlier work
[1] = tested on: porcine primary RPE cells; parameters: method as in PMID 27992460; conditions: at 20 µM; cited from earlier work
RPE cells = conditions: 100 µM; cited from earlier work
[2] = tested on: Balb-c male mice photoreceptors; parameters: method as in PMID 29541735; conditions: cited from earlier work
ARPE-19 cells [3] = test: Cytotoxicity of lipophenols (MTT cell viability, 24 h); assay type: cell-based, human; conditions: for Toxicity in ARPE-19 cells (in words): tested 0–160 µM
Protocol: (§1) Cell viability was determined by MTT colorimetric assay. The cells were incubated for 2 h with MTT reagent (0.5 mg/mL). During this incubation time, dehydrogenases of the living cells reduce the MTT to insoluble purple formazan. The absorbance at 570 nm and 655 nm of individual wells of the cell was measured using a microplate reader (BioRad 550, USA). […] The percentage of the viable cells was calculated as [(OD570 sample − OD655 sample)/(OD570 control − OD655 control)] × 100%.
(§2) ARPE-19 cells were plated into 96-well plates (4 × 10^4 cells/well) and cultured for 24 h to reach confluence before lipophenol treatment. The cell cultures were treated with serum free medium containing the lipophenols at different concentrations (0–160 µM) for 24 h. Control cells were incubated with DMSO (0.2%). The viability of the cells was determined using MTT colorimetric assay as described above and expressed in percentage of viable cells normalized with control conditions in the absence of lipophenols. When a dose-dependent toxicity was observed, CC50 was calculated.

[4] = as above; assay type: cell-based, human; conditions: human, ARPE-19 cells; for CC50 at 24 h: serum free medium, 0–160 µM, MTT, mean ± SD, n ≥ 3, read-out: ARPE-19 CC50 (concentration of lipophenol killing 50% of ARPE-19 cells)
Protocol: as §1, §2

ARPE-19 cells [5] = test: Protection against ROS production (DCFDA probe, H2O2 stress); assay type: cell-based, human; conditions: for IC50: H2O2 600 µM for 4 h, DCFDA, mean ± SD, n ≥ 3, read-out: ROS production IC50 (concentration needed to inhibit 50% of the ROS induced by H2O2)
Protocol: ROS activity was measured in ARPE-19 cells with dichlorofluorescein diacetate (DCFDA) reagent. DCFDA is deacetylated by cellular esterases to dichlorofluorescein (DCFH), which can then be oxidized by ROS into the fluorophore 2′,7′–dichlorofluorescein (DCF). ARPE-19 cells were plated into black, optically clear bottom 96-well plates (4 × 10^4 cells/well) and cultured for 24 h to reach confluence before the drug treatment. The cell cultures were incubated with 2 µM of DCFDA for 45 min in DMEM/F12 medium without phenol red + 1% FBS. The cells were rinsed and incubated with the medium containing lipophenols at different concentrations (0–80 µM) for 1 h. Then, H2O2 was added to a final concentration of 600 µM for 4 h, followed by the measurement of DCF production by fluorescence spectroscopy with excitation wavelength at 485 nm and emission wavelength at 535 nm. […] Control cells were incubated with DMSO (0.2%) ± DCFDA ± H2O2. The percentage of ROS produced was calculated as [(fluorescence of sample)/(fluorescence of control)] × 100%. The results are expressed in percentage of ROS produced normalized with control conditions in the absence of lipophenol and presence of stressor. When a dose-dependent inhibition was observed, IC50 was calculated.

ARPE-19 cells [6] = test: Protection against photo-oxidized A2E toxicity (MTT cell viability); assay type: cell-based, human; conditions: for IC50: 1 h pre-treatment, A2E 20 µM 6 h, blue light 30 min, mean ± SD, n ≥ 3, read-out: Protection against A2E toxicity IC50 (concentration needed to inhibit 50% of the toxicity induced by photo-oxidized A2E); for Decrease of the toxic effect of A2E: at 8 µM; for Cells protected from photo-oxidized A2E: at higher concentrations; for Maximum cell viability under photo-oxidized A2E: between 20 and 40 µM; for Potency against photo-oxidized A2E relative to natural quercetin: ratio of IC50
Protocol: as §1
ARPE-19 cells were plated into 96-well plates (4 × 10^4 cells/well) and cultured for 24 h to reach confluence before lipophenol treatment. The cell cultures were treated with serum free DMEM/F12 medium without phenol red containing lipophenols at different concentrations (0–80 µM) for 1 h. Then A2E was added to a final concentration of 20 µM for 6 h before rinsing with medium. Control cells were incubated with DMSO (0.2%) with or without A2E. The cells were exposed to intense blue light (4600 LUX) for 30 min to induce phototoxicity of A2E and incubated at 37 °C. The cell viability was determined 16–20 h later using a MTT colorimetric assay. Results are expressed in percentage of viable cells normalized with control conditions in the absence of lipophenols and stressor. When a dose-dependent efficiency was observed, IC50 was calculated.

ARPE-19 cells [7] = tested on: ARPE-19 cells; parameters: method as in PMID 27659166; conditions: 60 µM, cells treated twice for 3 days before A2E stress; cited from earlier work
[8] = Homo sapiens, ARPE-19, 1 h pre-incubation

## CC(/C=C/C=C(C)/C=C/C(=O)O)=C\C=C\C=C(C)\C=C\C=C(C)\C=C\C(=O)O (stereo in doubt) [Norbixin]
Abca4 −/− Rdh8 −/− mice
  Effect on A2E in mice (in words): able to reduce A2E
[1]
  Protection against A2E illuminated: 90–100%

## O=c1c(O[C@@H]2OC[C@H](O)[C@H](O)[C@H]2O)c(-c2ccc(O)c(O)c2)oc2cc(O)cc(O)c12 [3-quercetin glycoside, Quercetin-3-O-α-L-arabinopyranoside]
RPE cells
  Cell viability of RPE cells: ~ 90%
[2]
  Protection of photoreceptors against blue light damages (in words): protect

## Oc1cc(O)c2c(c1)O[C@H](c1ccc(O)c(O)c1)[C@@H](O)C2 [(+)-catechin, reference compound]
ARPE-19 cells [3]; 24 h
  Toxicity in ARPE-19 cells (in words): no apparent toxicity
[4]
  CC50 at 24 h: > 160 µM
ARPE-19 cells [5]; [8]
  IC50: 5.93 ± 0.06 µM

## CCCCC/C=C\C/C=C\CCCCCCCC(=O)O[C@H]1Cc2c(O)cc(O)cc2O[C@@H]1c1ccc(O)c(O)c1 [Cat-3-LA (9), catechin-3-LA]
ARPE-19 cells [3]; 24 h, MTT
  Concentration from which cytotoxicity on ARPE-19 starts: ≥ 80 µM
[4]
  CC50 at 24 h: 149 ± 6.61 µM
ARPE-19 cells [5]; [8]
  IC50: 10.6 ± 4.41 µM

## CCCCC/C=C\C/C=C\CCCCCCCC(=O)Oc1cc(O)cc(O)c1 [Phloro-LA (3), Phloroglucinol-LA]
[4]
  CC50 at 24 h: > 160 µM
ARPE-19 cells [5]; [8]
  IC50: > 80 µM
ARPE-19 cells [5]; ratio of ROS IC50
  ROS scavenging potency relative to natural homologue (phloroglucinol): nine times less potent

## Oc1cc(O)cc(O)c1 [Phloroglucinol, phloroglucinol, reference compound]
[4]
  CC50 at 24 h: > 160 µM
ARPE-19 cells [5]; [8]
  IC50: 10.2 ± 3.44 µM

## CC/C=C\C/C=C\C/C=C\CCCCCCCC(=O)Oc1c(-c2ccc(O)c(O)c2)oc2cc(O)cc(O)c2c1=O [Quer-3-ALA (14), quercetin-3-ALA]
other
  melting point: 180 °C
[4]
  CC50 at 24 h: 69.4 ± 3.46 µM
ARPE-19 cells [5]; 1 h pre-incubation
  IC50: 61.7 ± 7.43 µM
ARPE-19 cells [5]; [8]
  IC50: ~60 µM

## CC/C=C\C/C=C\C/C=C\C/C=C\C/C=C\C/C=C\CCC(=O)Oc1c(-c2ccc(O)c(O)c2)oc2cc(O)cc(O)c2c1=O [Quer-3-DHA (15)]
ARPE-19 cells [3]; 24 h
  Toxicity in ARPE-19 cells (in words): slight toxicity
[4]
  CC50 at 24 h: 134 ± 8.09 µM
ARPE-19 cells [5]; 1 h pre-incubation
  IC50: 59.4 ± 18.8 µM
ARPE-19 cells [5]; [8]
  IC50: ~60 µM

## CCCCC/C=C\C/C=C\CCCCCCCC(=O)Oc1c(-c2ccc(O)c(O)c2)oc2cc(O)cc(O)c2c1=O [Quer-3-LA (13), quercetin-3-LA]
ARPE-19 cells [6]; Homo sapiens, ARPE-19
  IC50: 8.24 µM
ARPE-19 cells [6]
  Decrease of the toxic effect of A2E: 50%
  Cells protected from photo-oxidized A2E: up to 90%
  Maximum cell viability under photo-oxidized A2E: 88–89%
  Potency against photo-oxidized A2E relative to natural quercetin: three times more potent
ARPE-19 cells [3]; at 80 µM, Figure 8, 100% = non-treated control cells
  Cell survival in cytotoxicity assay: 150%
ARPE-19 cells [3]; 24 h
  Toxicity in ARPE-19 cells (in words): no toxicity was observed up to 160 µM
[4]
  CC50 at 24 h: > 160 µM
ARPE-19 cells [5]; 1 h pre-incubation
  IC50: 52.2 ± 10.8 µM
ARPE-19 cells [5]; [8]
  IC50: ~60 µM

## CC/C=C\C/C=C\C/C=C\CCCCCCCC(=O)Oc1cc(O)c2c(=O)c(O)c(-c3ccc(O)c(O)c3)oc2c1 [Quer-7-ALA (18), quercetin-7-ALA]
ARPE-19 cells [6]; Homo sapiens, ARPE-19
  IC50: 8.45 µM
ARPE-19 cells [6]
  Decrease of the toxic effect of A2E: 50%
  Cells protected from photo-oxidized A2E: up to 90%
  Maximum cell viability under photo-oxidized A2E: 88–89%
  Potency against photo-oxidized A2E relative to natural quercetin: three times more potent
other
  melting point: 235.8 °C
[4]
  CC50 at 24 h: > 160 µM
[4]; up to 160 µM, Figure 8, 100% = non-treated control cells
  viability at 24 h: 128%
ARPE-19 cells [5]; [8]
  IC50: 9.44 ± 2.37 µM
ARPE-19 cells [5]; ratio of ROS IC50
  ROS scavenging potency relative to analogue 3-ALA: 6 times

## O=c1c(O)c(-c2ccc(O)c(O)c2)oc2cc(O)cc(O)c12 [Quercetin, quercetin, reference compound]
ARPE-19 cells [6]; Homo sapiens, ARPE-19
  IC50: 23.9 µM
ARPE-19 cells [6]; Homo sapiens, ARPE-19, at 40 µM, read-out: Maximum cell viability under photo-oxidized A2E
  viability at 40 µM: 78%
ARPE-19 cells [3]; 24 h
  Toxicity in ARPE-19 cells (in words): moderate toxicity
[4]
  CC50 at 24 h: 111 ± 4.92 µM
ARPE-19 cells [5]; [8]
  IC50: 6.82 ± 0.73 µM

## CCCCC/C=C\C/C=C\CCCCCCCC(=O)Oc1ccc(/C=C/c2cc(O)cc(O)c2)cc1 [Resv-4′-LA (8), resveratrol-4′-LA]
[4]
  CC50 at 24 h: > 160 µM
ARPE-19 cells [5]; [8]
  IC50: > 80 µM
ARPE-19 cells [5]; at 80 µM, Figure S1
  ROS scavenged: 40%

## Oc1ccc(C=Cc2cc(O)cc(O)c2)cc1 [Resveratrol, 3,4′,5-trihydroxystilbene, reference compound]
ARPE-19 cells [7]
  Protection against photo-oxidized A2E (in words, compared with 88–89% cell viability): Same level of protection
[4]
  CC50 at 24 h: > 160 µM
ARPE-19 cells [5]; [8]
  IC50: 7.4 ± 0.51 µM

## Oc1cc(O)cc(/C=C/c2ccc(O)c(O)c2)c1 [piceatannol]
ARPE-19 cells [7]
  Protection against photo-oxidized A2E (in words, compared with 88–89% cell viability): Same level of protection
